“Also recorded” adds a separate entry of the source.
Legend:
porcine skin [1] = experiment: Porcine skin penetrability test of FITC-labeled Fab, confocal fluorescence microscopy; conditions: for impact on skin penetration of Fab: 3% polysorbate added to CAGE (1:2); for skin penetration of Fab: 3% polysorbate alone, without CAGE
Method: (§1) Preparation of FITC-labeled Fab. The Pierce™ FITC Antibody-Labeling Kit (ThermoFisher Scientific) was used to label Fab purchased from Chemical & Scientific Corporation with FITC. Briefly, 925 μL of sterilized water were added into 75 μL of 0.67 M borate buffer that had been attached to the kit, and the labeling buffer (50 mM sodium borate, pH 8.5) was prepared. Lyophilized Fab, 1 mg, was added into 0.5 mL of the labeling buffer and was then melted. The Fab solution, 0.5 mL, was added into the FITC reagent vial that had been attached to the kit and was then pipetted 10 times for the complete melting of the pigment. After the collection of the slightly centrifuged sample solution in the vial's bottom, the reaction was incubated at room temperature for 60 minutes and under light blocking. At 60 minutes later, the column containing the reaction solution was set to the recovery column that had been attached to the kit. Subsequently, 400 μL of the homogeneously suspended purification column suspension solution were added. After centrifugation (about 1,000 μg, 30 to 45 seconds), FITC-labeled Fab was recovered. The amount of antibody labeling was calculated by measuring absorbance at 280 nm and 495 nm according to the following formulae:
(§2) Preparation of the FITC-labeled Fab-CAGE sample solution. The FITC-Fab solution (50 mM sodium borate, pH 8.5) was mixed with 6 CAGE variants at a volume ratio of 50%/50% (v/v %). Regarding CAGE (1:2), the FITC-Fab solution was mixed at volume ratios of 50%/50% (v/v %), 40%/60% (v/v %), and 30%/70% (v/v %). The mixed solutions were allowed to stand at room temperature for 1 hour. Subsequently, 300 μL of the mixed solutions obtained were used for the porcine skin penetrability test.
(§3) Preparation of the FITC-labeled Fab-CAGE-polysorbate sample solutions. Polysorbates 40 and 60 were mixed with the FITC-labeled Fab solution (50 mM sodium borate, pH 8.5) to obtain the final concentration of 3%. Subsequently, the resulting solutions were mixed with CAGE (1:2) at the volume ratios of 30%/70% (v/v %) [=30% CAGE (1:2)] or 40%/60% (v/v %) [=40% CAGE (1:2)]. Because of its nature of being solid at room temperature, polysorbate 60 was dissolved by 30-minute warming at 37° C. prior to the addition. Furthermore, the solution was warmed for 10 minutes at 37° C. to completely dissolve polysorbate 60 and was then mixed with CAGE (1:2). The resulting mixed solutions were allowed to stand at room temperature for 1 hour. The final concentration of antibodies was adjusted to 10 μg/mL.
(§4) Preparation of the porcine skin. In the porcine skin penetrability test, the cryopreserved skin of a WSP was unfrozen at room temperature. A pair of scissors were used to remove hair on the skin surface, followed by washing of the skin surface with PBS. The WSP skin, with the epidermis side upward, was set to the receiver chamber of a longitudinal diffusion cell (diffusion area: 1.77 cm2). The upper portion of the skin was filled with PBS (0.01% sodium azide). A contact gauge of conductivity was used to confirm skin conductivity at 100 Hz. The WSP skin with a resistivity of ≥5.65 kΩ/cm2 only was used in the porcine skin penetrability test based on previous studies [53,54].
(§5) Skin penetrability test using the porcine skin. The porcine skin was punched in a circle with a 36-mm diameter puncher. Subsequently, the porcine skin, with the epidermis side upward, was set on the receiver chamber of a longitudinal diffusion cell (diffusion area: 1.77 cm2). PBS (0.01% sodium azide, pH 7.4) was added into the interior of the receiver chamber and to the upper portion of the skin via a donor chamber, and the skin was allowed to stand in the incubator at 37° C. for 30 minutes. Meanwhile, the solution of the receiver chamber was stirred gently.

[2] = tested on: Fab (antihistone H1 antibody fragment; antigen KLH-SSV peptide); experiment: Deactivation-preventing effect of polysorbates on Fab in CAGE (1:2) (ELISA); format: biochemical; conditions: for Fab deactivation-preventing effect, qualitative comparison of polysorbates: 30% and 40% CAGE (1:2), 3% to 10% polysorbate (FIGS. 7A, 7B)
Method: Preparation of the Fab-CAGE (1:2)-polysorbate mixed solutions. […] Unlike other polysorbates, polysorbate 60 only is solid at room temperature.
The dialysate was replaced appropriately during the dialysis.
Each experiment was conducted in triplicate.

porcine skin [3] = tested on: porcine skin
Method: as §1, §2, §3, §4, §5

[4] = tested on: Fab (antihistone H1 antibody fragment; antigen KLH-SSV peptide); conditions: Fab 10 μg/mL in 10 mM phosphate buffer
Method: The Fab solution (10 mM phosphate buffer, pH 7.4) was mixed with CAGE (1:2) at the volume ratios of 50%/50% (v/v %), 40%/60% (v/v %), and 30%/70% (v/v %), and the mixed solutions were allowed to stand at room temperature for 1 hour. The Fab solution was prepared to obtain the final concentration of 10 μg/mL.
The solution was dialyzed with 10 mM phosphate buffer (pH 7.4) used as the dialysate at room temperature for 48 hours. The dialysate was replaced appropriately during the dialysis. At 48 hours later, the solution thus obtained was stored in a refrigerator at 4° C.
ELISA was conducted according to the method of Chiang et al. [51]. Briefly, 2 μg of KLH-SSV peptide (0.1 M sodium bicarbonate-sodium carbonate buffer, pH 9.6±0.2) were instilled into each well, and the solution was allowed to stand overnight at room temperature. After the removal of the KLH-SSV solution and the washing of each well with PBS (0.05% Tween 20®), 300 μL of SuperBlock Blocking Buffer™ in PBS were added into each well, and the solution was allowed to stand for 1 hour at room temperature. […] At 20 minutes later, SpectraMax i3™ (Molecular Devices) was used to measure absorbance at 405 nm. […]

## polyoxyethylene (20) sorbitan monostearate [polysorbate 60]
Porcine skin [1]
  impact on skin penetration of Fab: do not adversely impact skin penetration of Fab
  skin penetration of Fab: did not induce skin penetration of Fab
Porcine skin [1]; 30% CAGE + 3% polysorbate 60 versus 30% CAGE alone
  skin penetration of FITC-labeled Fab: Comparable skin penetration
[2]; 3% polysorbate, 30% CAGE (1:2), Fab 10 μg/mL
  Fab deactivation-prevention effect (preventive effect): > 80%
[2]
  Fab deactivation-preventing effect, qualitative comparison of polysorbates: equivalent; also recorded: more effective; also recorded: most potent

## polyoxyethylene (20) sorbitan monolaurate [polysorbate 20]
[2]; 3% polysorbate, 40% CAGE (1:2), Fab 10 μg/mL
  Fab deactivation-prevention effect (preventive effect): about 50%
[2]; 5% polysorbate, 30% CAGE (1:2), Fab 10 μg/mL
  Fab deactivation-prevention effect (preventive effect): ~100%
[2]; 8% polysorbate, 30% CAGE (1:2), Fab 10 μg/mL
  Fab deactivation-prevention effect (preventive effect): ~100%
[2]; 10% polysorbate, 30% CAGE (1:2), compared with 5% and 8%
  Fab deactivation-prevention effect (preventive effect): decreased slightly
[2]; 10% polysorbate, 40% CAGE (1:2), compared to 3% polysorbate 20
  Fab deactivation-prevention effect (preventive effect): comparable
[2]; 40% CAGE (1:2), polysorbate above 3%
  Fab deactivation-prevention effect, dependence on polysorbate concentration: decreased with increasing polysorbate 20 concentrations
[2]; 50% CAGE (1:2), polysorbate concentrations other than 8%
  Fab deactivation: mostly deactivated
[2]; ≥3% (v/v) polysorbate, 30% CAGE (1:2), Fab 10 μg/mL
  Fab deactivation-prevention effect (preventive effect): prevented

## Choline And GEranate [CAGE (1:2)]
Porcine skin [3]
  penetration of Fab into skin in vitro: deep penetration into skin
  skin penetration-enhancing effect of Fab: most potent
[4]
  Fab deactivation, dependence on CAGE (1:2) concentration: deactivated in a concentration dependent manner
[4]; ≥5% CAGE (1:2), 1 hour room temperature, CAGE removed by dialysis
  ELISA signal (absorbance of undialyzed aqueous Fab solution = 100%): about 5%

## polyoxyethylene (20) sorbitan monopalmitate [polysorbate 40]
Porcine skin [1]
  impact on skin penetration of Fab: do not adversely impact skin penetration of Fab
  skin penetration of Fab: did not impact skin penetration of the Fab
[2]
  Fab deactivation-preventing effect, qualitative comparison of polysorbates: prevented Fab deactivation at a lower concentration than did polysorbate 20; also recorded: equivalent; also recorded: more effective; also recorded: most potent

## polyoxyethylene (20) sorbitan monooleate [polysorbate 80]
[2]
  Fab deactivation-preventing effect, qualitative comparison of polysorbates: needs to be at a higher concentration compared to polysorbate 40 and polysorbate 60

From patent US12533315B2, “Compositions comprising at least one ionic liquid, a polypeptide, and at least one non-ionic surfactant for protein delivery” (PRESIDENT AND FELLOWS OF HARVARD COLLEGE, priority 2019, dated 2026)
